According to ChEMBL document CHEMBL1811854, “Phenolic compounds from the roots of Jordanian viper's grass, Scorzonera judaica” (J Nat Prod, 2011):

Columns and labels:
Type in all cases: functional, cell-based
MCF7 = experiment: Cytotoxicity against human MCF7 cells by MTT assay
Jurkat = experiment: Cytotoxicity against human Jurkat cells by MTT assay
HeLa = experiment: Cytotoxicity against human HeLa cells by MTT assay

Measured: IC50

C[C@@H]1O[C@@H](O[C@@H]2[C@@H](O)[C@H](Oc3ccc([C@@H]4Cc5cccc(O)c5C(=O)O4)cc3)O[C@H](CO)[C@H]2O)[C@H](O)[C@H](O)[C@H]1O
> 100 µM: all assays above

O=C1O/C(=C\c2ccc(O)c(O)c2)c2cccc(O[C@@H]3O[C@H](CO)[C@@H](O)[C@H](O)[C@H]3O)c21
> 100 µM: all assays above

O=C(Cc1cccc(O)c1C(=O)O)c1ccc(O)cc1
> 100 µM: all assays above

O=C(Cc1cccc(O)c1C(=O)O)c1ccc(O)c(O)c1
> 100 µM: all assays above

COc1cc(C(=O)Cc2cccc(O)c2C(=O)O)cc(O)c1O
> 100 µM: all assays above

O=C(O)c1c(O)cccc1/C=C/c1ccc(O[C@@H]2O[C@H](CO)[C@@H](O)[C@H](O)[C@H]2O)cc1
> 100 µM: all assays above

O=C1OC(c2ccc(O)c(O)c2)C/C1=C\c1ccc(O)c(O)c1 (configuration not stated)
> 100 µM: all assays above

O=C1OC(c2ccc(O)c(O)c2)=C/C1=C/c1ccc(O)c(O)c1
> 100 µM: all assays above

COc1cc([C@H]2O[C@H](O[C@@H]3O[C@H](CO)[C@@H](O)[C@H](O)[C@H]3O)[C@H]3[C@H]2CO[C@H]3c2ccc(O)c(OC)c2)ccc1O
> 100 µM: all assays above
